Consider 1 cell line from the supplement of paper PMC10307832.

What all share (assay): relative viability (nuclei count vs DMSO), 5 days (fraction); higher = more cells survive
Compound in test [1]: CC1(C)CNc2cc(NC(=O)c3cccnc3NCc3ccncc3)ccc21 [Motesanib] + CC(C)C[C@H](NC(=O)[C@H](Cc1ccccc1)NC(=O)c1cnccn1)B(O)O [Bortezomib] (partner 0.002 µM)
The essentials: (§1)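 Lung cancer cell lines were seeded in 1536-well plates and dosed by pin tool the next day, with either a single drug or a fixed anchor-drug dose combined with five library-drug doses (not always all listed) spaced in √10 steps. Five days later, one step fixed the cells and stained their nuclei (final 0.05% Triton X-100, 1% formaldehyde, 1 ug/ml Hoechst), and nuclei were counted on 4× images. Relative viability is the nuclei count in treated wells divided by the count in vehicle wells, and each value is the median of duplicate plates.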

Compound in test [2]: CC1(C)CNc2cc(NC(=O)c3cccnc3NCc3ccncc3)ccc21 [Motesanib] + O=C(CCCCCCC(=O)Nc1ccccc1)NO [Vorinostat] (partner 1 µM)
In outline: as §1

Compound in test [3]: C[C@@]1(C(=O)Nc2ccc(F)nc2)CCCN1c1nc(Nc2cc(C3CC3)n[nH]2)c2cccn2n1 + Nc1ncn([C@H]2C[C@H](O)[C@@H](CO)O2)c(=O)n1 [Decitabine] (partner 2 µM)
The essentials: as §1

Compound in test [4]: C[C@@]1(C(=O)Nc2ccc(F)nc2)CCCN1c1nc(Nc2cc(C3CC3)n[nH]2)c2cccn2n1 + COc1cccc2cc(-c3nc([C@H]4CC[C@H](C(=O)O)CC4)n4ncnc(N)c34)[nH]c12 [OSI-027] (partner 0.5 µM)
The essentials:
as §1

UMC-11: the relative viability in test [1] (first compound 0.01 µM) was determined as 0.648; in test [1] (first compound 0.03162 µM), 0.767; in test [1] (first compound 0.1 µM) it was 0.64; in test [1] (first compound 0.3162 µM) it was 0.683; in test [1] (first compound 1 µM), 0.951; in test [2] (first compound 0.01 µM), 0.44. Further, the relative viability was determined as 0.438 in test [2] (first compound 0.03162 µM); 0.345 in test [2] (first compound 0.1 µM); 0.426 in test [2] (first compound 0.3162 µM); 0.476 in test [2] (first compound 1 µM); 0.638 in test [3] (first compound 0.04 µM); 0.45 in test [3] (first compound 0.1265 µM). For the same cell line, the relative viability stood at 0.317 in test [3] (first compound 0.4 µM); 0.646 in test [3] (first compound 1.265 µM); 0.531 in test [4] (first compound 0.04 µM); 0.416 in test [4] (first compound 0.1265 µM); 0.485 in test [4] (first compound 0.4 µM); 0.37 in test [4] (first compound 1.265 µM).
